Assay results: patent US20180267021A1, “METHODS AND DEVICES FOR ASSESSING CELL PROPERTIES UNDER CONTROLLED GAS ENVIRONMENTS” (Carnegie Mellon University, priority 2014, published 2018)
“Also recorded” adds a separate entry of the source.

How the values were obtained:
sickle RBCs [1] = assay: Microfluidic hypoxia assay: anti-sickling effect of Aes-103 on sickle RBCs incubated in vitro; format: cell-based, human
Experimental: (§1) Cell sickling was measured using a double-layer device with a cell channel (5 μm high), a gas channel (100 μm high) and an in-between PDMS film 150 μm in thickness (FIG. 1A). The O2 concentration was controlled by exchanging gas flow in the channel through the PDMS membrane that is gas-permeable (33). […] Sickle RBCs typically form spiky edges and dark coarse texture due to intracellular HbS polymerization, the visual identification of which was enhanced by a band-pass filter (FIG. 1B). Thus the sickled cells were defined as those obviously distorted from their original shape and texture under Oxy state (O2 concentration 20%) to the DeOxy state (O2 concentration <5%). […] The delay time of cell unsickling was defined as the time elapsed between the initiation of reoxygenation (ReOxy) and the point when the RBC fully recovered its pre-sickle morphology in a visibly identifiable manner.
(§2) For the Aes-103 testing, blood samples from 3 on-HU and 3 off-HU patients were incubated with Aes-103 at different concentrations (0.5, 1, 2, and 5 mM) for one hour at 37° C. before the in vitro sickling test. […] The fractionation gradient was built up with four layers of 2.5 ml Optiprep-DPBS medium of densities of 1.081, 1.091, 1.100 and 1.111 g/ml, respectively. 1 ml blood sample was washed twice with Phosphate Buffered Saline (PBS) at 2000 rpm for 5 minutes at 21° C. and diluted into 70-80% hematocrit. […] The four fractions, Density 1 through Density 4 have mean densities of 1.086±0.005 g/ml, 1.095±0.005 g/ml, 1.105±0.005 g/ml, and >1.111 g/ml, respectively. Fractionated sickle RBCs were then suspended with RPMI-1640 containing 1% w/v Bovine Serum Albumin (BSA) (Sigma-Aldrich, St Louis, Mo.) and stored at 4° C. until shortly before use to avoid metabolic depletion.
(§3) As Ru(dpp)3C12 is water insoluble, it was dissolved in Acetone-RPMI (volume ratio of 1:2) at 0.8 mg/ml and injected into the cell channel. […] Short-term and long-term hypoxia conditions held the durations of DeOxy state (O2 concentration<5%) about 25 s and 220 s, respectively.

sickle RBCs [2] = assay: Kinetics of cell sickling and unsickling under transient hypoxia, patient samples on-HU vs off-HU; format: cell-based, human
Experimental: as §1
Kinetics of individual cell sickling and unsickling under transient hypoxia conditions was quantified by the delay time and the maximum sickled fraction on 25 SCD patient samples: 7 patients without HU therapy (off-HU) and 18 patients with HU therapy (on-HU) (see patient's HU status in Materials and Methods Text). Short-term and a long-term hypoxia conditions were created to simulate normal and retarded transit scenarios in microvasculature (FIGS. 2A-B). Representative cell sickling profiles upon changes in O2 concentration are shown (FIG. 2C). Compared to the relatively long sickling process (>100 s for sickled fraction rising from zero to a saturated, maximum level), the unsickling process after ReOxy was much faster (<20 s for sickled fraction reducing from the saturated level to zero), disregarding the small discrepancy in the DeOxy and ReOxy rates (<20 s). This observation applied to all patient sample.
as §2

sickle RBCs [3] = assay: Kinetics of cell sickling of density-fractionated sickle RBC populations, on-HU vs off-HU; format: cell-based, human
Description: In order to quantify the effects of cell density on the kinetics of cell sickling and unsickling, we categorized sickle RBCs into four populations with average cell densities of 1.086±0.005 g/ml (Density 1), 1.095±0.005 g/ml (Density 2), 1.105±0.005 g/ml (Density 3), and >1.111 g/ml (Density 4) for 20 SCD samples from 6 off-HU patients and 14 on-HU patients. The majority of sickle RBCs fell within Density 2 and Density 3 (FIG. 8A). We noticed a significant difference in sickling growth curve among different density populations of individual blood samples under both short-term and long-term DeOxy states (FIGS. 8B and C). Results of delay time of cell sickling and sickled fraction were examined along with cell density and the patient's HU status. Delay time of cell sickling decreased with cell density (FIG. 5A), which can be rationalized by the hydration state of the cells (39, 40).
as §2, §3

sickle RBCs [4] = assay: Individual sickle RBC rheology through micro-gates under transient hypoxia, on-HU vs off-HU

SMILES | change in cell sickling from baseline (sickle RBCs [1]; 2 mM Aes-103 incubation, each patient sample) | maximum sickled fraction (sickle RBCs [1]; 5 mM Aes-103, one hour at 37° C., hypoxia 2% O2, 3 on-HU and 3 off-HU patient samples) [%] | sickled fraction of one patient sample (sickle RBCs [1]; 5 mM Aes-103, one patient sample) | dependence of sickled fraction on Aes-103 concentration (anti-sickling effect) (sickle RBCs [1]; Aes-103 0.5-5 mM, long-term hypoxia) | delay time of sickling, on-HU group compared with off-HU group (sickle RBCs [2]; 5% sickled fraction, p<0.01) | delay time of cell sickling, six cases (sickle RBCs [2]; 10% sickled fraction, six cases, suggesting beneficial effect of HU therapy) [s] | influence of HU therapy on delay time of cell sickling to saturated sickled fraction (sickle RBCs [2]; long-term DeOxy state, p<0.02) | delay time of cell unsickling, on-HU vs off-HU (sickle RBCs [2]; long-term DeOxy state, p=0.24) | maximum sickled fraction (sickle RBCs [2]; short-term DeOxy state (O2 <5% for 25 s), all on-HU samples, significantly lower than off-HU (p=0.03)) | delay time for unsickling, on-HU vs off-HU (sickle RBCs [3]; Densities 1 through 3, long-term DeOxy) | delay time of cell sickling with HU therapy, Densities 3 and 4 (sickle RBCs [3]; Densities 3 and 4, p=0.01 and p=0.06) | mean delay time of cell sickling, on-HU vs off-HU cases (sickle RBCs [3]; density-fractionated populations, short-term DeOxy, p<0.02) | sickled fraction with HU therapy (sickle RBCs [3]; short-term hypoxia, particularly Densities 3 and 4 (p=0.01 and p=0.001)) | capillary obstruction ratio, on-HU vs off-HU (sickle RBCs [4]; 7 on-HU and 7 off-HU patient samples, DeOxy state, p=0.04) | cell velocity, on-HU vs off-HU (sickle RBCs [4]; individual RBCs through periodic micro-gates)
O=Cc1ccc(CO)o1 [Aes-103, 5-hydroxymethylfurfural] | significant decrease in cell sickling from its baseline | < 5 | nearly zero | strong correlation with the drug concentration; also recorded: decreased with drug concentration; also recorded: dosage-dependent manner |  |  |  |  |  |  |  |  |  |  | 
NC(=O)NO [HU, hydroxyurea] |  |  |  |  | significantly longer | > 60 | statistically significant | no significant difference | below 15% | did not vary significantly | marked extension | statistically higher | significantly suppressed | significantly lower | lower than those for the off-HU group
